Measurements reported in US10336732B2, “1-heterocyclyl isochromanyl compounds and analogs for treating CNS disorders” (Sunovion Pharmaceuticals Inc., priority 2015, dated 2019).

System: mice
Assay: Neuropharmacological assay (SmartCube), behavioral signature of compound-treated mice
Format: in vivo
Conditions: i.p. 15 min before behavioral test, most efficacious dose(s) of 3 doses
In short: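 Mice received compound i.p. in NMP/PEG/propylene glycol vehicle at 3 doses, 15 min before testing. Video-captured behavior was algorithmically compared with a reference-drug signature database.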

Compound | AD: ADHD (probability that behavioral signature matches class) | AG: analgesic (probability that behavioral signature matches class) | AX: anxiolytic (probability that behavioral signature matches class) | CE: cognitive enhancer (probability that behavioral signature matches class) | DP: anti-depressant (probability that behavioral signature matches class) | HA: hallucinogen (probability that behavioral signature matches class) | MS: mood stabilizer (probability that behavioral signature matches class) | PS: anti-psychotic (probability that behavioral signature matches class) | SD: sedative hypnotic (probability that behavioral signature matches class) | UN: uncharacterized CNS activity (probability that behavioral signature matches class)
Fc1cccc2c1CCO[C@H]2[C@@H]1CCN1 [Compound I-93, (S)-2-((R)-5-fluoroisochroman-1-yl)azetidine] | ++ (5% ≤ ++ <25%) | +++ (25% ≤ +++ <50%) | ++ (5% ≤ ++ <25%) | ++ (5% ≤ ++ <25%) | +++ (25% ≤ +++ <50%) | + (LOQ ≤ + <5%) | + (LOQ ≤ + <5%) | ++ (5% ≤ ++ <25%) | ++ (5% ≤ ++ <25%) | ++ (5% ≤ ++ <25%)
Fc1cccc2c1[C@@H]([C@H]1CCCN1)OCC2 [Compound I-3, (R)-2-((S)-8-fluoroisochroman-1-yl)pyrrolidine] | + (LOQ ≤ + <5%) | ++ (5% ≤ ++ <25%) | ++ (5% ≤ ++ <25%) | ++ (5% ≤ ++ <25%) | +++ (25% ≤ +++ <50%) | + (LOQ ≤ + <5%) | ++ (5% ≤ ++ <25%) | ++ (5% ≤ ++ <25%) | ++ (5% ≤ ++ <25%) | +++ (25% ≤ +++ <50%)
Cc1cccc2c1[C@@H]([C@H]1CCCN1)OCCC2 [Compound I-104, (R)-2-((S)-9-methyl-1,3,4,5-tetrahydrobenzo[c]oxepin-1-yl)pyrrolidine] | + (LOQ ≤ + <5%) | +++ (25% ≤ +++ <50%) | ++ (5% ≤ ++ <25%) | + (LOQ ≤ + <5%) | ++ (5% ≤ ++ <25%) | + (LOQ ≤ + <5%) | + (LOQ ≤ + <5%) | + (LOQ ≤ + <5%) | ++ (5% ≤ ++ <25%) | ++ (5% ≤ ++ <25%)
Cc1ccc2c(c1)[C@H]([C@@H]1CCCN1)OCC2 [Compound I-25, (S)-2-((R)-7-methylisochroman-1-yl)pyrrolidine] | + (LOQ ≤ + <5%) | +++ (25% ≤ +++ <50%) | ++ (5% ≤ ++ <25%) | ++ (5% ≤ ++ <25%) | ++ (5% ≤ ++ <25%) | + (LOQ ≤ + <5%) | + (LOQ ≤ + <5%) | ++ (5% ≤ ++ <25%) | + (LOQ ≤ + <5%) | ++ (5% ≤ ++ <25%)
Clc1ccc2c(c1)[C@@H]([C@H]1CCCN1)OCC2 [Compound I-32, (R)-2-((S)-7-chloroisochroman-1-yl)pyrrolidine] | + (LOQ ≤ + <5%) | +++ (25% ≤ +++ <50%) | ++ (5% ≤ ++ <25%) | ++ (5% ≤ ++ <25%) | ++ (5% ≤ ++ <25%) | + (LOQ ≤ + <5%) | + (LOQ ≤ + <5%) | +++ (25% ≤ +++ <50%) | ++ (5% ≤ ++ <25%) | + (LOQ ≤ + <5%)
COc1cccc2c1[C@H]([C@@H]1CCCN1)OCC2 [Compound I-47, (S)-2-((R)-8-methoxyisochroman-1-yl)pyrrolidine] | + (LOQ ≤ + <5%) | + (LOQ ≤ + <5%) | ++ (5% ≤ ++ <25%) | + (LOQ ≤ + <5%) | + (LOQ ≤ + <5%) | + (LOQ ≤ + <5%) | + (LOQ ≤ + <5%) | + (LOQ ≤ + <5%) | + (LOQ ≤ + <5%) | + (LOQ ≤ + <5%)
Fc1ccc2c(c1)[C@H]([C@H]1CCCN1)OCC2 [Compound I-7, (R)-2-((R)-7-fluoroisochroman-1-yl)pyrrolidine] | + (LOQ ≤ + <5%) | ++ (5% ≤ ++ <25%) | ++ (5% ≤ ++ <25%) | ++ (5% ≤ ++ <25%) | ++ (5% ≤ ++ <25%) | + (LOQ ≤ + <5%) | + (LOQ ≤ + <5%) | ++ (5% ≤ ++ <25%) | + (LOQ ≤ + <5%) | +++ (25% ≤ +++ <50%)
C[C@]1([C@H]2CCCN2)OCc2cc(F)ccc21 [Compound I-125, (R)-2-((S)-5-fluoro-1-methyl-1,3-dihydroisobenzofuran-1-yl)pyrrolidine] | + (LOQ ≤ + <5%) | ++ (5% ≤ ++ <25%) | ++ (5% ≤ ++ <25%) | ++ (5% ≤ ++ <25%) | ++++ (50% ≤ ++++) | + (LOQ ≤ + <5%) | + (LOQ ≤ + <5%) | + (LOQ ≤ + <5%) | ++ (5% ≤ ++ <25%) | + (LOQ ≤ + <5%)
Fc1ccc2c(c1)CCO[C@@H]2[C@@H]1COCCN1 [Compound I-77, (S)-3-((S)-6-fluoroisochroman-1-yl)morpholine] | + (LOQ ≤ + <5%) | + (LOQ ≤ + <5%) | ++ (5% ≤ ++ <25%) | + (LOQ ≤ + <5%) | + (LOQ ≤ + <5%) | + (LOQ ≤ + <5%) | + (LOQ ≤ + <5%) | + (LOQ ≤ + <5%) | + (LOQ ≤ + <5%) | + (LOQ ≤ + <5%)
c1ccc2c(c1)CCO[C@H]2[C@H]1CCN1 [Compound I-82, (R)-2-((R)-isochroman-1-yl)azetidine] | + (LOQ ≤ + <5%) | ++ (5% ≤ ++ <25%) | ++ (5% ≤ ++ <25%) | ++ (5% ≤ ++ <25%) | +++ (25% ≤ +++ <50%) | + (LOQ ≤ + <5%) | ++ (5% ≤ ++ <25%) | ++ (5% ≤ ++ <25%) | ++ (5% ≤ ++ <25%) | ++ (5% ≤ ++ <25%)
Clc1ccc2c(c1)CCO[C@@H]2[C@H]1CCCN1 [Compound I-36, (R)-2-((S)-6-chloroisochroman-1-yl)pyrrolidine] | + (LOQ ≤ + <5%) | ++ (5% ≤ ++ <25%) | ++ (5% ≤ ++ <25%) | ++ (5% ≤ ++ <25%) | ++ (5% ≤ ++ <25%) | + (LOQ ≤ + <5%) | ++ (5% ≤ ++ <25%) | +++ (25% ≤ +++ <50%) | + (LOQ ≤ + <5%) | ++ (5% ≤ ++ <25%)

Same assay, conditions: i.p. 15 min before behavioral test, most efficacious dose(s) of 3 doses

Compound | XG: anxiogenic (probability that behavioral signature matches class)
Fc1cccc2c1CCO[C@H]2[C@@H]1CCN1 [Compound I-93, (S)-2-((R)-5-fluoroisochroman-1-yl)azetidine] | + (LOQ ≤ + <5%)
Fc1cccc2c1[C@@H]([C@H]1CCCN1)OCC2 [Compound I-3, (R)-2-((S)-8-fluoroisochroman-1-yl)pyrrolidine] | + (LOQ ≤ + <5%)
Cc1cccc2c1[C@@H]([C@H]1CCCN1)OCCC2 [Compound I-104, (R)-2-((S)-9-methyl-1,3,4,5-tetrahydrobenzo[c]oxepin-1-yl)pyrrolidine] | + (LOQ ≤ + <5%)
Cc1ccc2c(c1)[C@H]([C@@H]1CCCN1)OCC2 [Compound I-25, (S)-2-((R)-7-methylisochroman-1-yl)pyrrolidine] | + (LOQ ≤ + <5%)
Clc1ccc2c(c1)[C@@H]([C@H]1CCCN1)OCC2 [Compound I-32, (R)-2-((S)-7-chloroisochroman-1-yl)pyrrolidine] | + (LOQ ≤ + <5%)
COc1cccc2c1[C@H]([C@@H]1CCCN1)OCC2 [Compound I-47, (S)-2-((R)-8-methoxyisochroman-1-yl)pyrrolidine] | + (LOQ ≤ + <5%)
Fc1ccc2c(c1)[C@H]([C@H]1CCCN1)OCC2 [Compound I-7, (R)-2-((R)-7-fluoroisochroman-1-yl)pyrrolidine] | + (LOQ ≤ + <5%)
C[C@]1([C@H]2CCCN2)OCc2cc(F)ccc21 [Compound I-125, (R)-2-((S)-5-fluoro-1-methyl-1,3-dihydroisobenzofuran-1-yl)pyrrolidine] | + (LOQ ≤ + <5%)
Fc1ccc2c(c1)CCO[C@@H]2[C@@H]1COCCN1 [Compound I-77, (S)-3-((S)-6-fluoroisochroman-1-yl)morpholine] | + (LOQ ≤ + <5%)
c1ccc2c(c1)CCO[C@H]2[C@H]1CCN1 [Compound I-82, (R)-2-((R)-isochroman-1-yl)azetidine] | + (LOQ ≤ + <5%)
Clc1ccc2c(c1)CCO[C@@H]2[C@H]1CCCN1 [Compound I-36, (R)-2-((S)-6-chloroisochroman-1-yl)pyrrolidine] | + (LOQ ≤ + <5%)
